The values below come from ChEMBL document CHEMBL4818988, “Structure-Activity Relationships for the Marine Natural Product Sintokamides: Androgen Receptor N-Terminus Antagonists of Interest for Treatment of Metastatic Castration-Resistant Prostate Cancer” (J Nat Prod, 2021).

Active and inactive are the calls of the source. No cut-off for these calls is given here.

The target of assay [1] is T1, Androgen receptor (Homo sapiens) (UniProt P10275).
T1 sequence (whole entry): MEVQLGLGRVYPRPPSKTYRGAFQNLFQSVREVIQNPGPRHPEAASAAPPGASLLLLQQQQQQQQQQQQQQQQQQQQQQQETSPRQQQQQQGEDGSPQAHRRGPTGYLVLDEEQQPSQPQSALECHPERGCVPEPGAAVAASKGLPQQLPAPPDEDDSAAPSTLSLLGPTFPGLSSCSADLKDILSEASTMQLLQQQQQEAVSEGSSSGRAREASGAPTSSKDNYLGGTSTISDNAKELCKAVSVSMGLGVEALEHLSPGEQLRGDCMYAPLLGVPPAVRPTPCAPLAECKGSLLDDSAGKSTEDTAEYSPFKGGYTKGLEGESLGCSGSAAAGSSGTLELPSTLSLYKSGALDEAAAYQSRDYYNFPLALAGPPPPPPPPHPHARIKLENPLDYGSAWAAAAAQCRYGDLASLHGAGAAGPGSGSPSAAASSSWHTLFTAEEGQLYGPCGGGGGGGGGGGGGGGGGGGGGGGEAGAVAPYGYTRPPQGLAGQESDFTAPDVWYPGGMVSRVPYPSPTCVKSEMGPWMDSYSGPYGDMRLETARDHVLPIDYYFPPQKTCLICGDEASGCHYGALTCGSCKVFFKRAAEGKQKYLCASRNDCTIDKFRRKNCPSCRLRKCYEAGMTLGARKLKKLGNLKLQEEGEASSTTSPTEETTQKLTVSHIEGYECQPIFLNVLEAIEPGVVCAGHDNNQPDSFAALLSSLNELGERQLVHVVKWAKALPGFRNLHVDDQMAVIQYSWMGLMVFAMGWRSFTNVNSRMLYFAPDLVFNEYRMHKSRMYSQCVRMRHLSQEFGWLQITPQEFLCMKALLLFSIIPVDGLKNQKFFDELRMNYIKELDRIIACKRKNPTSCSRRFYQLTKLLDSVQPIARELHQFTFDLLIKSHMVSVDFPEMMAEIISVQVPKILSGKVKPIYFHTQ
As to the kind of experiment: Antagonist activity at AR in human LNCaP cells transfected with PSA assessed as inhibition of R1881-induced PSA luciferase activity pretreated with compound followed by R1881 addition at 10 uM and measured after 48 hrs by luciferase assay. Format: cell-based.

Assay [2] concerns the target T1, Androgen receptor (Homo sapiens). Put plainly: Antagonist activity at AR in human LNCaP cells transfected with PSA assessed as inhibition of R1881-induced PSA luciferase activity pretreated with compound followed by R1881 addition at 25 uM and measured after 48 hrs by luciferase assay. It is filed as cell-based.
For assay [3] the target is unchanged. As to the kind of experiment: Antagonist activity at AR in human LNCaP cells transfected with PSA assessed as inhibition of R1881-induced PSA luciferase activity pretreated with compound followed by R1881 addition at 50 uM and measured after 48 hrs by luciferase assay. Format: cell-based.
Assay [4] has the same target. Put plainly: Antagonist activity at AR in human LNCaP cells transfected with PSA assessed as inhibition of R1881-induced PSA luciferase activity pretreated with compound followed by R1881 addition at 5 uM and measured after 48 hrs by luciferase assay. Format: cell-based.
In the next assay the target is T2, Androgen receptor (Homo sapiens, UniProt P10275).
T2 sequence (P10275 whole entry): T1 sequence (whole entry)
As to the kind of experiment: (§1) Antagonist activity at AR in human LNCaP cells transfected with PSA assessed as inhibition of R1881-induced PSA luciferase activity pretreated with compound followed by R1881 addition and measured after 48 hrs by luciferase assay. Format: cell-based.

The next assay relates to PC-3. Put plainly: Cytotoxicity against human PC3 cells assessed as reduction in cell viability after 72 hrs by Alamar blue assay. Format: functional, cell-based. The note with it: PC-3, 72 h. For orientation: Alamar Blue is a resazurin reagent that responds to reducing activity.
For the next assay, the system named is DU-145. Put plainly: Cytotoxicity against human DU145 cells assessed as reduction in cell viability after 72 hrs by Alamar blue assay. Format: functional, cell-based. The note with it: DU-145, 72 h.
Assay [5] deals with T1, Androgen receptor (Homo sapiens). The assay is described as §1. Format: cell-based. As to conditions: filed as antagonist.
Assay [6] has the same target. Put plainly: Antagonist activity at AR in human LNCaP cells transfected with PSA assessed as inhibition of R1881-induced PSA luciferase activity pretreated with compound followed by R1881 addition at 15 uM and measured after 48 hrs by luciferase assay. It is filed as cell-based.
For assay [7] the target is unchanged. As to the kind of experiment: Antagonist activity at AR in human LNCaP cells transfected with PSA assessed as inhibition of R1881-induced PSA luciferase activity pretreated with compound followed by R1881 addition at 35 uM and measured after 48 hrs by luciferase assay. It is filed as cell-based.

On to `CCC(=O)N[C@H](CCCCl)C(=O)N1C(=O)C=C(OC)[C@@H]1CCCCl`, for which the result in assay [1], in [2] and in [3] was inactive.

A word on the IC50: it is the concentration at which inhibition is half-maximal. As to `CCC(=O)N[C@H](C[C@H](C)C(Cl)(Cl)Cl)C(=O)N1C(=O)C=C(OC)[C@@H]1C[C@H](C)C(Cl)Cl`, the result in [4] (filed as antagonist) and in [1] (filed as antagonist) was Active. For the same compound, the values for the concentration for half-maximal inhibition (IC50) at Androgen receptor, with PC-3 and in the assay with DU-145 were 6.5 µM, 29 µM and above 35 µM, respectively.

`CCC(=O)N[C@H](CCC(Cl)Cl)C(=O)N1C(=O)C=C(OC)[C@@H]1CCC(Cl)Cl`: the Activity result in assay [5] was “Dose-Dependent Effect”.

As for `CCC(=O)N[C@H](CCC(Cl)(Cl)Cl)C(=O)N1C(=O)C=C(OC)[C@@H]1CCC(Cl)(Cl)Cl`, in [5], the Activity entry is “Dose-Dependent Effect”.

Turning to `CCC(=O)N[C@H](CCC(Cl)Cl)C(=O)N1C(=O)C=C(OC)[C@H]1CCC(Cl)Cl`, the Activity entry in assay [5] was “Dose-Dependent Effect”.

With `CCC(=O)N[C@H](C[C@H](C)C(Cl)(Cl)Cl)C(=O)N1C(=O)C=C(OC)[C@@H]1C[C@H](C)C(Cl)(Cl)Cl`, the result in assay [4] (filed as antagonist) and in [1] (filed as antagonist) was Active.

As for `CCC(=O)N[C@H](CCC(Cl)(Cl)Cl)C(=O)N1C(=O)C=C(OC)[C@H]1CCC(Cl)(Cl)Cl`, the Activity entry in [5] is “Dose-Dependent Effect”.

For `CCC(=O)N[C@H](CC(C)C)C(=O)N1C(=O)C=C(OC)[C@@H]1CC(C)C`, the outcome in assay [4], in assay [6] and in [7] was inactive.
